# Source: EP0749423B1, “PIPERIDINES AND PYRROLIDINES” (NOVO NORDISK A/S, priority 1994, dated 1995)
# Where two headings read alike, the source gives them in different places.
# Columns and labels:
# cultured liver cells = experiment: Glucose production from cultured rat hepatocytes (basal and glucagon stimulated glycogenolysis); format: cell-based; conditions: Hepatocyte; for activity at 50 µM / activity at 32 µM: 70 min, glucose in medium after 70 minutes; for activity at 50 µM: test compound 50µM; for activity at 32 µM: test compound 32µM
# Procedure: During the last 24 hours, the hepatocytes were cultured in the presence of high levels of insulin (5 nM) and glucose (15 mM), which result in the incorporation of glucose into glycogen. Therefore, at the time of the experiment, the cells mimic livers from fed animals. Experiments were initiated after 72 hours of culture by 2 times wash of cells and addition of a 20 mM HEPES experimental buffer including balanced salts, but without glucose. The test compound was added simultaneously with the experimental buffer. To some cultures, glucagon (0.5 nM) was added after 10 minutes in order to stimulate glucose production from liver cells. The glucose released into the media, reflecting the glucose production of the liver cells, was measured 70 minutes after the start of the experiment and standardized to cellular DNA content.
# liver α-1,6-glucosidase = biological target: T1, liver α-1,6-glucosidase (Homo sapiens, UniProt P35573); experiment: Glycogen debranching enzyme activity (Brown and Brown method); format: biochemical; conditions: read-out: I.C.50 liver α-1,6-glucosidase
# T1 construct: from tissue
# T1 sequence (P35573 whole entry): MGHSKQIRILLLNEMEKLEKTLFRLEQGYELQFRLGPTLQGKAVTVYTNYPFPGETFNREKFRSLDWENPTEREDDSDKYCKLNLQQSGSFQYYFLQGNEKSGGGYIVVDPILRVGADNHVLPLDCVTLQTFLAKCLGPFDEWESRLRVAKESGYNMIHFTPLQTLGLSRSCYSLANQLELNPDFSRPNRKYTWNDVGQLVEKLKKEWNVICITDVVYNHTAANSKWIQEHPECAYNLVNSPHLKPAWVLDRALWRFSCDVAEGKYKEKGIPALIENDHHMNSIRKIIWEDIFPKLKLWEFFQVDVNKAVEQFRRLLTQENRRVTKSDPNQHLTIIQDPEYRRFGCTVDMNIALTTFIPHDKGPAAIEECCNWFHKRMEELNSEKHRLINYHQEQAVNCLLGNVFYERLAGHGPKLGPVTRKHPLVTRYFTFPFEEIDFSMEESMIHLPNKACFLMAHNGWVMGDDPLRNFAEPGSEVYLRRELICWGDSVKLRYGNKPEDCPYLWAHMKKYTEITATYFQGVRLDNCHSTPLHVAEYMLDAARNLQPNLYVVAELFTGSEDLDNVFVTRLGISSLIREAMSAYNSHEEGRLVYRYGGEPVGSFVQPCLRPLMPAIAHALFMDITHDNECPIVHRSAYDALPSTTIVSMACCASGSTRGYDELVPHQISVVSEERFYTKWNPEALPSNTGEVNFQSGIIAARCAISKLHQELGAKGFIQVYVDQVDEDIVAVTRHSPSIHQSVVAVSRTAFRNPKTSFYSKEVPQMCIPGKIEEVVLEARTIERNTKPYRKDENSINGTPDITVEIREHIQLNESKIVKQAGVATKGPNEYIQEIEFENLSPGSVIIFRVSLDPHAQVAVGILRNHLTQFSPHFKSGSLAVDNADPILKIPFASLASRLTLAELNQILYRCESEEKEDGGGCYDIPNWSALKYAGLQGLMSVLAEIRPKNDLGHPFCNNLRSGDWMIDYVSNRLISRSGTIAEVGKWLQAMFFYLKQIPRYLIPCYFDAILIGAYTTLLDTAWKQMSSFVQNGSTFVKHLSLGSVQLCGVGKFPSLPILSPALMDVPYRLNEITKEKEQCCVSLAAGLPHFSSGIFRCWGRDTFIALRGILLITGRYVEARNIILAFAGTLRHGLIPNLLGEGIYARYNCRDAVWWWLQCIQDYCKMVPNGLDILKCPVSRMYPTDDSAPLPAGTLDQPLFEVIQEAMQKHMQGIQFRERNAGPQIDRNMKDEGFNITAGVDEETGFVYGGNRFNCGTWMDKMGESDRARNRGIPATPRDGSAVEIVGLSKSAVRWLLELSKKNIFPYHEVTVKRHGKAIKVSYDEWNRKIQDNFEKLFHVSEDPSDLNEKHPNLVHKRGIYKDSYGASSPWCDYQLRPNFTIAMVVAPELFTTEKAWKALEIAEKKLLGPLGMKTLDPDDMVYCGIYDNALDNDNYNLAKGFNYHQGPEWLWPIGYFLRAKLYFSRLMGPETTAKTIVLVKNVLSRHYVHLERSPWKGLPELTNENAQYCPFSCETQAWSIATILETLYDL
# Phosphorylase = conditions: read-out: I.C.50 Phosphorylase; phosphorylase purchased from Sigma or extracted from rat livers
# [1] = relative to basal glucose production (no addition with glucagon = 283%), read-out: Glucose production With glucagon (0.5nM)
# [2] = basal, without glucagon, read-out: I.C.50 Liver cell glucose production: Basal
# [3] = read-out: I.C.50 Liver cell glucose production: Glucagon stimulated
Compound,"activity at 50 µM (cultured liver cells; relative to basal glucose production (no addition = 100 %), read-out: Glucose production Without glucagon) [%]",activity at 50 µM (cultured liver cells; [1]) [%],IC50 (cultured liver cells; [2]) [nM],IC50 (cultured liver cells; [3]) [nM],"IC50 (liver α-1,6-glucosidase) [nM]",IC50 (Phosphorylase) [nM],"activity at 32 µM (cultured liver cells; relative to basal glucose production (no addition = 100 %), standardized to DNA, read-out: Glucose production Without glucagon) [%]",activity at 32 µM (cultured liver cells; [1]) [%]
OC[C@H]1NC[C@H](O)[C@@H](O)[C@@H]1O [1-deoxynojirimycin],89,237,> 100000,> 100000,2400,> 200000,–,–
"OC[C@H]1CNC[C@@H](O)[C@@H]1O [Example 1, (3R,4R,5R)-3,4-dihydroxy-5-hydroxymethylpiperidine]",–,–,1300,1600,77000,–,17,32
